{"source": "patent EP1894572B1", "about": "“THERAPEUTIC AGENT AND/OR PROPHYLACTIC AGENT FOR NEUROGENIC PAIN” (Asahi Kasei Pharma Corporation, priority 2005, dated 2013)", "key": {"[1]": {"conditions": "cited from earlier work"}, "[2]": {"test": "Blood retention time after intermittent administration", "type": "in vivo", "experimental": "From Comparative Example 1 described later, it has been considered that an analgesic action by intermittent administration of calcitonin is affected by accumulation of an effect in each administration. The blood retention time by intermittent administration is about 2 hours. Therefore, also included in the range of the present invention is an administration method in which continuous administration of 2 hours or more and less than 8 hours is repeated and accumulated duration of continuous administration within 24 hours is 8 hours or more."}, "[3]": {"conditions": "human, in vivo"}, "[4]": {"system": "chronic constriction injury model (CCI model)", "test": "CCI model, Randall Selitto method, intravenous continuous drip", "type": "in vivo, rat", "conditions": "neuropathic pain; after effect once manifested", "experimental": "Preparing of the CCI model and elcatonin administration initiation period were the same as in Example 1. A cannulation was performed on cervical vein, and on 2nd day after cannulation, elcatonin (0.75 U/kg/week) was administered by intravenous continuous drip at 1 mL/body/24 hours, and withdrawal pressure by Randall Slitto method was measured 4, 8, 12 and 24 hours after."}, "[5]": {"conditions": "rat, in vivo"}, "[6]": {"conditions": "rat, in vivo", "remark": "listed apart in the source"}, "[7]": {"conditions": "rat, in vivo", "experimental": "Using normal rats (each 4 rats) which were in the same week old in initiation of administration of elcatonin as in Examples 1 and 2, dose of elcatonin not varying serum calcium value was examed in the case of single subcutaneous administration (administered over 10 seconds). […] Further, the same test was conducted excepting that blood collection was carried out 30 minutes after the administration. Measurement of serum calcium value was conducted using calcium C-test wako (Wako).", "remark": "listed apart in the source"}}, "note": "Where two headings read alike, the source gives them in different places. Positions of bridges follow the written chain, without caps; N, C: chain ends. Non-standard residues stand in square brackets, D forms with d. Residues, ends and D or L forms follow the SMILES beside them. Asu = N[C@@H](CCCCCC(=O)O)C(=O)O"}
{"compound": "calcitonin", "values": [{"measurement": "serum calcium", "setting": "[1]; bone metastasis cancer patient, s.c. 400 U/man/day mixed into morphine continuous administration", "result": "a significant decrease in serum calcium is recognized"}, {"measurement": "serum calcium", "setting": "[1]; renal osteopathy patient, drip intravenous 40 U/man/5 hours", "result": "no significant decrease in serum calcium is recognized"}, {"measurement": "blood retention time", "setting": "[2]", "result": "about 2 hours"}, {"measurement": "calcitonin dose altering serum calcium values in humans", "setting": "[3]", "result": 0.093, "unit": "mU/kg/second"}, {"measurement": "continuation of analgesic effect during the drug withdrawal period", "setting": "[4]", "result": "continues for at least one week"}]}
{"compound": "CC(C)C[C@H](NC(=O)[C@H](CCCCN)NC(=O)CNC(=O)[C@H](CC(C)C)NC(=O)[C@@H](NC(=O)[C@@H]1CCCCCC(=O)N[C@@H](CO)C(=O)N[C@@H](CC(N)=O)C(=O)N[C@@H](CC(C)C)C(=O)N[C@@H](CO)C(=O)N[C@@H]([C@@H](C)O)C(=O)N1)C(C)C)C(=O)N[C@@H](CO)C(=O)N[C@@H](CCC(N)=O)C(=O)N[C@@H](CCC(=O)O)C(=O)N[C@@H](CC(C)C)C(=O)N[C@@H](Cc1c[nH]cn1)C(=O)N[C@@H](CCCCN)C(=O)N[C@@H](CC(C)C)C(=O)N[C@@H](CCC(N)=O)C(=O)N[C@H](C(=O)N[C@@H](Cc1ccc(O)cc1)C(=O)N1CCC[C@H]1C(=O)N[C@@H](CCCNC(=N)N)C(=O)N[C@H](C(=O)N[C@@H](CC(=O)O)C(=O)N[C@H](C(=O)NCC(=O)N[C@@H](C)C(=O)NCC(=O)N[C@H](C(=O)N1CCC[C@H]1C(N)=O)[C@@H](C)O)C(C)C)[C@@H](C)O)[C@@H](C)O", "note": "[elcatonin, 1-butylic acid-7-(L-2-aminobutylic acid)-26-L-aspartic acid-27-L-valine-29-L-alaninecalcitonin] (SNLST[Asu]VLGKLSQELHKLQTYPRTDVGAGTP-NH2; lactam N-6)", "values": [{"measurement": "serum calcium concentration", "setting": "[5]", "result": "did not affect serum calcium amount at all"}, {"measurement": "body weight", "setting": "[6]", "result": "no change in body weight was found"}, {"measurement": "body weight increase", "setting": "[6]", "result": "suppression of body weight increase became remarkable"}, {"measurement": "serum calcium at effective dose on neuropathic pain in intermittent administration", "setting": "[7]", "result": "lowered to normal value (8.5 to 10.5 mg/dl) or less"}, {"measurement": "serum calcium value relative to normal value", "setting": "[7]; sc", "result": "below a normal value"}]}
